Reference: patent US20260315564A1, “THE USE OF TP3 (THYMOPENTIN ANALOG) BY INCREASING THE ACTIVITY AND NUMBER OF T-CELLS INVOLVED IN THE DEFENSE MECHANISM OF THE IMMUNE SYSTEM OF MAMMALS, FOR THE PREVENTION OR TREATMENT OF DISEASES TO EXTEND THE AVERAGE LIFESPAN” (priority 2023, published 2026)
Marks after values point to notes of the source that are not given here.

System: peritoneal macrophages
Test: Phagocytic function of peritoneal macrophages ex vivo in CFLP outbred mice (CY-immunosuppressed)
Source text: 6.2./Examination of the Effect on the Phagocytic Function of Peritoneal Macrophages CFLP Outbred in Mice
Macrophage phagocytosis ex vivo (X=yeast/100 cells)

In the case of `O=P1(N(CCCl)CCCl)NCCCO1` (centres unmarked) [CY], the “phagocytic activity of macrophages” value (CY immunosuppression, 1.0 mg/kg/sc (TP3), in words) is reported as “significantly inhibited” and the “macrophage phagocytosis ex vivo” value (CY p.o. alone, n = 15, untreated control 194.5) is reported as 111.5* yeast/100 cells.
